The target in this assay is T1, human ChemerinR (ChemR23) expressed in CHO-K1 cells (Homo sapiens, UniProt Q99788).
T1 construct: This fragment was subcloned into the pcDNA3 (Invitrogen) vector; expressed in transfected cells; host or cells: CHO-K1 (co-expressing mitochondrial apoaequorin and Galpha16)
T1 sequence (Q99788 3-373): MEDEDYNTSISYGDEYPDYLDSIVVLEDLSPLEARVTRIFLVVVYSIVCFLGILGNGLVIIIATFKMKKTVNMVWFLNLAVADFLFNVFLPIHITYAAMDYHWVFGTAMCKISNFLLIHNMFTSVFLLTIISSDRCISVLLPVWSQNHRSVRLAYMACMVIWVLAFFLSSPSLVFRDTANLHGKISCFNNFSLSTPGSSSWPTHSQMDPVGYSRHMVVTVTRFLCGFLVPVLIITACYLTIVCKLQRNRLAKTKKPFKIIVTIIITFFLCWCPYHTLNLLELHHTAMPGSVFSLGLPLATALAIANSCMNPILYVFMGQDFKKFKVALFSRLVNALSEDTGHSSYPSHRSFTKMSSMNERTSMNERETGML
The assay can be described thus: aequorin-based intracellular Ca2+ release assay. Type of assay: cell-based. Here is the method: Briefly, ChemerinR-expressing clones are transfected to coexpress mitochondrial apoaequorin and Gα16. Cells are incubated with 5 μM Coelenterazine H (Molecular Probes) for 4 hours at room temperature, washed in DMEM-F12 culture medium and resuspended at a concentration of 0.5×10^6 cells/ml. Cells are then mixed with test agonist peptides and light emission by the aequorin is recorded with a luminometer for 30 sec. Results are expressed as Relative Light Units (RLU). Controls include assays using membranes isolated from cells not expressing ChemerinR (mock-transfected), in order to exclude possible non-specific effects of the candidate compound.
ChemerinR-expres sing clones have been obtained by transfection of CHO-K1 cells to coexpressing mitochondrial apoaequorin and Gα16, limiting dilution and selection by northern blotting. Positive clones were used for screening with human ovarian cancer ascites extracts prepared as described above. […] Briefly, cells were collected from plates in PBS containing 5 mM EDTA, pelleted and resuspended at 5×10^6 cells/ml in DMEM-F12 medium. Cells were incubated with 5 μM Coelenterazine H (Molecular Probes) for 4 hours at room temperature. Cells were then washed in DMEM-F12 medium and resuspended at a concentration of 0.5×10^6 cells/ml. Cells were then mixed with test agonist peptides or plates containing tissue extracts and the light emission was recorded for 30 sec using a Microlumat luminometer (Perkin Elmer). Results are expressed as Relative Light Units (RLU).

Where [1] appears, read: truncated Chemerin peptides, values given in μM, read-out: Mean EC50.

Read-outs that look alike come from different tables or passages of the source. Peptide text beside a SMILES is read from it.

For the compound `C[C@H](NC(=O)[C@H](Cc1ccccc1)NC(=O)[C@H](CCC(N)=O)NC(=O)CNC(=O)[C@@H]1CCCN1C(=O)[C@H](Cc1ccccc1)NC(=O)[C@H](Cc1ccc(O)cc1)NC(=O)[C@H](Cc1ccccc1)NC(=O)[C@H](CO)NC(=O)[C@@H](N)Cc1c[nH]cn1)C(=O)N[C@@H](Cc1ccccc1)C(=O)N[C@@H](CO)C(=O)O` [Human Chemerin-12] (H-HSFYFPGQFAFS-OH; N-terminus and C-terminus assumed), the EC50 (usually the concentration giving half of the maximal effect) was determined as 0.0122 ± 0.0034 µM.
`C[C@H](NC(=O)[C@H](CCCNC(=N)N)NC(=O)[C@@H](N)CCC(N)=O)C(=O)NCC(=O)N[C@@H](CCC(=O)O)C(=O)N[C@@H](CC(=O)O)C(=O)N1CCC[C@H]1C(=O)N[C@@H](Cc1c[nH]cn1)C(=O)N[C@@H](CO)C(=O)N[C@@H](Cc1ccccc1)C(=O)N[C@@H](Cc1ccc(O)cc1)C(=O)N[C@@H](Cc1ccccc1)C(=O)N1CCC[C@H]1C(=O)NCC(=O)N[C@@H](CCC(N)=O)C(=O)N[C@@H](Cc1ccccc1)C(=O)O` [Human [ΔAla17Phe18Ser19] Chemerin-19] (H-QRAGEDPHSFYFPGQF-OH) had an EC50 of 130 ± 10 µM.
Same read-out and setting: the value for `C[C@H](NC(=O)[C@H](Cc1ccccc1)NC(=O)[C@H](CCC(N)=O)NC(=O)CNC(=O)[C@@H]1CCCN1C(=O)[C@H](Cc1ccccc1)NC(=O)[C@H](Cc1ccc(O)cc1)NC(=O)[C@H](Cc1ccccc1)NC(=O)[C@H](CO)NC(=O)[C@H](Cc1c[nH]cn1)NC(=O)[C@@H]1CCCN1C(=O)[C@H](CC(=O)O)NC(=O)[C@H](CCC(=O)O)NC(=O)CNC(=O)[C@H](C)NC(=O)[C@H](CCCNC(=N)N)NC(=O)[C@@H](N)CCC(N)=O)C(=O)O` [Human [ΔPhe18Ser19] Chemerin-19] (H-QRAGEDPHSFYFPGQFA-OH; N-terminus and C-terminus assumed) was 220 µM; that for `C[C@H](NC(=O)[C@H](Cc1ccccc1)NC(=O)[C@H](CCC(N)=O)NC(=O)CNC(=O)[C@@H]1CCCN1C(=O)[C@H](Cc1ccccc1)NC(=O)[C@H](Cc1ccc(O)cc1)NC(=O)[C@H](Cc1ccccc1)NC(=O)[C@H](CO)NC(=O)[C@H](Cc1c[nH]cn1)NC(=O)[C@@H]1CCCN1C(=O)[C@H](CC(=O)O)NC(=O)[C@H](CCC(=O)O)NC(=O)CNC(=O)[C@H](C)NC(=O)[C@H](CCCNC(=N)N)NC(=O)[C@@H](N)CCC(N)=O)C(=O)N[C@@H](Cc1ccccc1)C(=O)O` [Human [ΔSer19] Chemerin-19] (H-QRAGEDPHSFYFPGQFAF-OH; N-terminus and C-terminus assumed) was 0.097 ± 0.013 µM; that for `C[C@H](NC(=O)[C@H](Cc1ccccc1)NC(=O)[C@H](CCC(N)=O)NC(=O)CNC(=O)[C@@H]1CCCN1C(=O)[C@H](Cc1ccccc1)NC(=O)[C@H](Cc1ccc(O)cc1)NC(=O)[C@H](Cc1ccccc1)NC(=O)[C@H](CO)NC(=O)[C@H](Cc1c[nH]cn1)NC(=O)[C@@H]1CCCN1)C(=O)N[C@@H](Cc1ccccc1)C(=O)N[C@@H](CO)C(=O)O` [Human Chemerin-13] (H-PHSFYFPGQFAFS-OH) was 0.014 µM.
As for `C[C@H](NC(=O)[C@H](Cc1ccccc1)NC(=O)[C@H](CCC(N)=O)NC(=O)CNC(=O)[C@@H]1CCCN1C(=O)[C@@H](N)Cc1ccccc1)C(=O)N[C@@H](Cc1ccccc1)C(=O)N[C@@H](CO)C(=O)O` [Human Chemerin-8] (H-FPGQFAFS-OH; N-terminus and C-terminus assumed), the response was half-maximal at 2 ± 1 µM (EC50).
In the case of `C[C@H](NC(=O)[C@H](C)NC(=O)[C@H](CCC(N)=O)NC(=O)CNC(=O)[C@@H]1CCCN1C(=O)[C@H](Cc1ccccc1)NC(=O)[C@@H](N)Cc1ccc(O)cc1)C(=O)N[C@@H](Cc1ccccc1)C(=O)N[C@@H](CO)C(=O)O` [Human [Ala-6] Chemerin-9] (H-YFPGQAAFS-OH; N-terminus and C-terminus assumed), under setting [1], the EC50 is 5 ± 1 µM.
On the same count and under the same terms, to `C[C@H](NC(=O)[C@H](C)NC(=O)[C@H](Cc1ccccc1)NC(=O)[C@H](CCC(N)=O)NC(=O)CNC(=O)[C@@H]1CCCN1C(=O)[C@H](Cc1ccccc1)NC(=O)[C@@H](N)Cc1ccc(O)cc1)C(=O)N[C@@H](CO)C(=O)O` [Human [Ala-8] Chemerin-9] (H-YFPGQFAAS-OH; N-terminus and C-terminus assumed) belongs 38 ± 7 µM.

Values taken from US8030453B2, “Methods of making an antibody that binds a chemerin polypeptide” (Euroscreen S.A., priority 2001, dated 2011).
